Test results from patent US20090220537A1, “VACCINE DELIVERY SYSTEM” (THE UNIVERSITY OF QUEENSLAND, priority 2005, published 2009).

Columns and labels:
RSV = assay type: in vivo, mice
[1] = tested on: E7-expressing TC-1 tumour cells; assay type: in vivo; conditions: H-2b mice immunised twice, 2×10^5 TC-1 cells two weeks after second immunisation; within 15 days; FIG. 6C

Question: With “ESYIGSINNITKQSA [M215 peptide + adjuvant]” as the sequence, how does the “Mean RSV load per ½-lung in mice with detectable infection” value (RSV; BALB/c mice challenged intranasally with 8×10^5 pfu RSV, lungs 4 days later, immunofocus assay) read?
Answer: 1.0 × 10^3 pfu

Question: What about the “Number of mice (%) with detectable RSV in lungs” value (RSV; BALB/c mice, 5 per group, challenged intranasally with 8×10^5 pfu RSV 3 weeks after immunisation, lungs 4 days later, limit of detection 5×10^2 pfu/lung, listed as M15 peptide+adjuvant) of the same sequence?
Answer: One of five

Question: And the “RSV-specific immunostaining of lung cryosections” value (RSV; indirect immunofluorescence, 4 days after challenge, FIG. 5)?
Answer: reduced staining

Question: How did the “Mice that developed tumour” value [1] turn out when RAHYNIVTF [RAH peptide+adjuvant] was run?
Answer: level of protection was consistent with that observed
